Laboratory results published in PMC7551059, “Bioactive Bianthraquinones and Meroterpenoids from a Marine-Derived Stemphylium sp. Fungus” (Marine Drugs, 2020).
Where two headings read alike, the source gives them in different places.

Test system: lipopolysaccharide (LPS)-induced nitric oxide (NO) production in RAW 264.7 mouse macrophages
Assay: LPS-induced NO (nitrite) production in RAW 264.7 cells, Griess reagent
Assay type: cell-based
Settings: for IC50: Mus musculus
Protocol: A RAW 264.7 murine macrophage cell line was purchased from American Type Cell Culture (Rockville, MD, USA). Cells were cultured in DMEM with 10% fetal bovine serum and antibiotic−antimycotics (i.e., penicillin G sodium, 100 units/mL; streptomycin, 100 μg/mL; amphotericin B, 250 ng/mL) at 37 °C in a humidified incubator with 5% carbon dioxide. All reagents used for cell culture were purchased from Gibco® Invitrogen Corp. (Grand Island, NY, USA).
The concentration of nitrite in the cultured media was used as a measure of NO production. The assay was performed as previously described. RAW 264.7 cells were plated at a density of 5 × 10^5 per well in a 24-well culture plate and incubated in a 37 °C humidified incubator with 5% CO2 in air for 18 h. The incubated cells were pretreated with phenol-red-free medium containing various concentrations of tested compounds for 30 min, followed by 1 μg/mL of LPS treatment for 18 h more. Aliquots of the supernatant from each well (100 μL) were transferred to a 96-well plate, and nitrite concentration was measured using Griess reagent. After the Griess reaction, MTT solution (final concentration of 500 μg/mL) was added to each well and further incubated for 4 h at 37 °C. Each medium was discarded, and dimethyl sulfoxide was added to each well to dissolve generated formazan. The absorbance was measured at 570 nm, and percent survival was determined by comparison with LPS treated control group. All reagents used in the nitrite production measurement were purchased from Sigma-Aldrich (St. Louis, MO, USA).

[1] = RAW264.7, RAW 264.7 cells, compounds 30 min before LPS 1 μg/mL, 18 h, read-out: IC50, suppression of LPS-induced NO production

Row | Structure (SMILES) | IC50 [1] [µM] | further results
1 | COc1c(-c2cc(O)c3c(c2OC)C(=O)c2cc(C)c(O)cc2C3=O)cc(O)c2c1C(=O)C1=C(C2=O)[C@H](O)[C@@H](O)[C@@](C)(O)[C@H]1O (relative stereo) [Compound 2, alterporriol Z2] | 16.1 ± 1.1 | 
2 | COc1c(-c2cc(O)c3c(c2OC)C(=O)c2cc(C)c(O)cc2C3=O)cc(O)c2c1C(=O)C1=C(C2=O)C(O)C(O)C(C)(O)C1O (stereo not drawn) [Compound 1, alterporriol Z1] | 11.6 ± 0.7 | 
3 | COc1cc(O)c2c(c1)C(=O)c1cc(C)c(O)c(-c3c(OC)cc(O)c4c3C(=O)C3=C(C4=O)C(OC)C(O)C(C)(O)C3O)c1C2=O (stereo not drawn) [Compound 3, alterporriol Z3] |  | IC50, suppression of LPS-induced NO production (RAW 264.7 cells, compounds 30 min before LPS 1 μg/mL, 18 h): inactive
4 | COc1cc(O)c2c(c1-c1c(OC)cc(O)c3c1C(=O)c1cc(C)c(O)cc1C3=O)C(=O)C1=C(C[C@@H](O)[C@@](C)(O)[C@@H]1O)C2=O [Compound 4, alterporriol F] | 9.6 ± 1.6 | 
5 | COc1cc2c(c(O)c1-c1c(OC)cc(O)c3c1C(=O)C1=C(C3=O)[C@H](O)[C@@H](O)[C@@](C)(O)[C@@H]1O)C(=O)c1cc(O)c(C)cc1C2=O [Compound 5, alterporriol G] |  | IC50 (RAW264.7, read-out: IC50, suppression of LPS-induced NO production): 8.4 ± 0.4 µM
6 | COc1cc(O)c2c(c1)C(=O)c1cc(C)c(O)c(-c3c(OC)cc(O)c4c3C(=O)C3=C(C4=O)[C@H](O)[C@@H](O)[C@@](C)(O)[C@H]3O)c1C2=O [Compound 6, alterporriol N] | 10.7 ± 0.6 | 
